Test: Inhibition of aromatase in human MCF7 cells

IC50 [µM] | Compound
17 | O=C1c2ccccc2OCC1c1ccc(Oc2ccccc2)cc1 (configuration not stated)
44 | O=C1c2ccccc2OCC1c1cccnc1 (configuration not stated)
